Source: patent US20050112099A1, “Tumor antigen BFA5 for prevention and / or treatment of cancer” (Aventis Pasteur, Ltd., priority 2003, published 2005)
Where no end group is shown, it is not given here.

Assays:
HLA-A*0201 human T cells = experiment: IFN-γ ELISPOT of human T-cell cultures activated with BFA5 peptides; type: cell-based; details: listing of the peptide is the result
peptide-loaded T2 cells = experiment: 51Cr-release CTL assay using peptide-loaded T2 cells; type: cell-based, human; details: listing of the peptide is the result
[1] = Rabbit immunization with BFA5 peptides, IgG titer; type: in vivo; details: for IgG titer × 10^5 (after second Immunization): KLH-coupled peptide with Freund's Incomplete Adjuvant, two weeks later; for IgG titer × 10^5 (after first Immunization): peptide emulsion with Freund's Complete Adjuvant
Experimental: Polyclonal antisera were generated against the following series of 22- to 23-mer peptides of BFA5:
Prebleed samples from rabbits were processed and stored at −20° C. Rabbits were immunized as follows: 1) the peptides were administered as an emulsion with Freund's Complete Adjuvant (FCA); and, 2) two weeks later, the peptides were coupled with Keyhole-Limpet Hemocyanin (KLH)-coupled and administered as an emulsion with Freund's Incomplete Adjuvant FIA.

AELQMTLKL
BFA5 peptides eliciting high IFN-γ release (>200 spots/100,000 cells) (HLA-A*0201 human T cells; Donor AP10): AELQMTLKL
BFA5 peptides inducing CTL lysis of pulsed cells (peptide-loaded T2 cells; Donor AP10): AELQMTLKL
BFA5 peptides inducing CTL lysis of pulsed cells (peptide-loaded T2 cells; Donor AP31): AELQMTLKL

ALRIQDIEL
BFA5 peptides eliciting high IFN-γ release (>200 spots/100,000 cells) (HLA-A*0201 human T cells; Donor AP10): ALRIQDIEL

ATCGMKVSI
BFA5 peptides eliciting high IFN-γ release (>200 spots/100,000 cells) (HLA-A*0201 human T cells; Donor AP10): ATCGMKVSI
BFA5 peptides inducing CTL lysis of pulsed cells (peptide-loaded T2 cells; Donor AP10): ATCGMKVSI

AVYSEILSV
BFA5 peptides eliciting high IFN-γ release (>200 spots/100,000 cells) (HLA-A*0201 human T cells; Donor AP10): AVYSEILSV

GVTAEHYAV
BFA5 peptides eliciting high IFN-γ release (>200 spots/100,000 cells) (HLA-A*0201 human T cells; Donor AP31): GVTAEHYAV

ILKEKNAEL
BFA5 peptides eliciting high IFN-γ release (>200 spots/100,000 cells) (HLA-A*0201 human T cells; Donor AP10): ILKEKNAEL
BFA5 peptides eliciting high IFN-γ release (>200 spots/100,000 cells) (HLA-A*0201 human T cells; Donor AP31): ILKEKNAEL

KCTALMLAV
BFA5 peptides eliciting high IFN-γ release (>200 spots/100,000 cells) (HLA-A*0201 human T cells; Donor AP10): KCTALMLAV

KLH-AENTMLTSKLKEKQDKEILEAEI ({KLH}-AENTMLTSKLKEKQDKEILEAEI) [CLP 2981]
IgG titer × 10^5 (after second Immunization) ([1]; Rb1): 256 × 10^5
IgG titer × 10^5 (after first Immunization) ([1]; Rb1): 8 × 10^5
IgG titer × 10^5 (after second Immunization) ([1]; Rb2): 64 × 10^5
IgG titer × 10^5 (after first Immunization) ([1]; Rb2): 4 × 10^5

KLH-DEILPSESKQKDYEENSWDTESL ({KLH}-DEILPSESKQKDYEENSWDTESL) [CLP 2979]
IgG titer × 10^5 (after second Immunization) ([1]; Rb1): 256 × 10^5
IgG titer × 10^5 (after first Immunization) ([1]; Rb1): 12 × 10^5
IgG titer × 10^5 (after second Immunization) ([1]; Rb2): 512 × 10^5
IgG titer × 10^5 (after first Immunization) ([1]; Rb2): 25 × 10^5

KLH-MTKRKKTINLNIQDAQKRTALHW ({KLH}-MTKRKKTINLNIQDAQKRTALHW) [CLP 2977]
IgG titer × 10^5 (after second Immunization) ([1]; Rb1): 256 × 10^5
IgG titer × 10^5 (after first Immunization) ([1]; Rb1): 25 × 10^5
IgG titer × 10^5 (after second Immunization) ([1]; Rb2): 64 × 10^5
IgG titer × 10^5 (after first Immunization) ([1]; Rb2): 6 × 10^5

KLH-NYNNHLKNRIYQYEKEKAETENS ({KLH}-NYNNHLKNRIYQYEKEKAETENS) [CLP 2982]
IgG titer × 10^5 (after second Immunization) ([1]; Rb1): 64 × 10^5
IgG titer × 10^5 (after first Immunization) ([1]; Rb1): 2/2 × 10^5
IgG titer × 10^5 (after second Immunization) ([1]; Rb2): 32 × 10^5
IgG titer × 10^5 (after first Immunization) ([1]; Rb2): 2/2 × 10^5

KLH-RLTLNQEEEKRRNADILNEKIRE ({KLH}-RLTLNQEEEKRRNADILNEKIRE) [CLP 2980]
IgG titer × 10^5 (after second Immunization) ([1]; Rb1): 1024 × 10^5
IgG titer × 10^5 (after first Immunization) ([1]; Rb1): 25 × 10^5
IgG titer × 10^5 (after second Immunization) ([1]; Rb2): 128 × 10^5
IgG titer × 10^5 (after first Immunization) ([1]; Rb2): 12 × 10^5

KLH-TSEKFTWPAKGRPRKIAWEKKED ({KLH}-TSEKFTWPAKGRPRKIAWEKKED) [CLP 2978]
IgG titer × 10^5 (after second Immunization) ([1]; Rb1): 64 × 10^5
IgG titer × 10^5 (after first Immunization) ([1]; Rb1): 25/25 × 10^5
IgG titer × 10^5 (after second Immunization) ([1]; Rb2): 256 × 10^5
IgG titer × 10^5 (after first Immunization) ([1]; Rb2): 25/25 × 10^5

KSQEPAFHI
BFA5 peptides eliciting high IFN-γ release (>200 spots/100,000 cells) (HLA-A*0201 human T cells; Donor AP31): KSQEPAFHI

KVMEINREV
BFA5 peptides eliciting high IFN-γ release (>200 spots/100,000 cells) (HLA-A*0201 human T cells; Donor AP10): KVMEINREV

KVSIPTKAL
BFA5 peptides eliciting high IFN-γ release (>200 spots/100,000 cells) (HLA-A*0201 human T cells; Donor AP10): KVSIPTKAL
BFA5 peptides inducing CTL lysis of pulsed cells (peptide-loaded T2 cells; Donor AP31): KVSIPTKAL

MLKKEIAML
BFA5 peptides eliciting high IFN-γ release (>200 spots/100,000 cells) (HLA-A*0201 human T cells; Donor AP31): MLKKEIAML

MLKLEIATL
BFA5 peptides eliciting high IFN-γ release (>200 spots/100,000 cells) (HLA-A*0201 human T cells; Donor AP10): MLKLEIATL
BFA5 peptides eliciting high IFN-γ release (>200 spots/100,000 cells) (HLA-A*0201 human T cells; Donor AP31): MLKLEIATL
BFA5 peptides inducing CTL lysis of pulsed cells (peptide-loaded T2 cells; Donor AP31): MLKLEIATL

NLNYAGDAL
BFA5 peptides eliciting high IFN-γ release (>200 spots/100,000 cells) (HLA-A*0201 human T cells; Donor AP10): NLNYAGDAL
BFA5 peptides eliciting high IFN-γ release (>200 spots/100,000 cells) (HLA-A*0201 human T cells; Donor AP31): NLNYAGDAL

NLVDVYGNM
BFA5 peptides eliciting high IFN-γ release (>200 spots/100,000 cells) (HLA-A*0201 human T cells; Donor AP10): NLVDVYGNM
BFA5 peptides inducing CTL lysis of pulsed cells (peptide-loaded T2 cells; Donor AP10): NLVDVYGNM

QIMEYIRKL
BFA5 peptides eliciting high IFN-γ release (>200 spots/100,000 cells) (HLA-A*0201 human T cells; Donor AP10): QIMEYIRKL
BFA5 peptides eliciting high IFN-γ release (>200 spots/100,000 cells) (HLA-A*0201 human T cells; Donor AP31): QIMEYIRKL
BFA5 peptides inducing CTL lysis of pulsed cells (peptide-loaded T2 cells; Donor AP31): QIMEYIRKL

QLQSKNMWL
BFA5 peptides eliciting high IFN-γ release (>200 spots/100,000 cells) (HLA-A*0201 human T cells; Donor AP10): QLQSKNMWL
BFA5 peptides eliciting high IFN-γ release (>200 spots/100,000 cells) (HLA-A*0201 human T cells; Donor AP31): QLQSKNMWL
BFA5 peptides inducing CTL lysis of pulsed cells (peptide-loaded T2 cells; Donor AP31): QLQSKNMWL

SIPTKALEL
BFA5 peptides eliciting high IFN-γ release (>200 spots/100,000 cells) (HLA-A*0201 human T cells; Donor AP10): SIPTKALEL
BFA5 peptides inducing CTL lysis of pulsed cells (peptide-loaded T2 cells; Donor AP31): SIPTKALEL

SLKINLNYA
BFA5 peptides eliciting high IFN-γ release (>200 spots/100,000 cells) (HLA-A*0201 human T cells; Donor AP10): SLKINLNYA
BFA5 peptides eliciting high IFN-γ release (>200 spots/100,000 cells) (HLA-A*0201 human T cells; Donor AP31): SLKINLNYA
BFA5 peptides inducing CTL lysis of pulsed cells (peptide-loaded T2 cells; Donor AP31): SLKINLNYA

SLSKILDTV
BFA5 peptides eliciting high IFN-γ release (>200 spots/100,000 cells) (HLA-A*0201 human T cells; Donor AP10): SLSKILDTV
BFA5 peptides eliciting high IFN-γ release (>200 spots/100,000 cells) (HLA-A*0201 human T cells; Donor AP31): SLSKILDTV
BFA5 peptides inducing CTL lysis of pulsed cells (peptide-loaded T2 cells; Donor AP31): SLSKILDTV

SLTPLLLSI
BFA5 peptides eliciting high IFN-γ release (>200 spots/100,000 cells) (HLA-A*0201 human T cells; Donor AP10): SLTPLLLSI
BFA5 peptides eliciting high IFN-γ release (>200 spots/100,000 cells) (HLA-A*0201 human T cells; Donor AP31): SLTPLLLSI
BFA5 peptides inducing CTL lysis of pulsed cells (peptide-loaded T2 cells; Donor AP31): SLTPLLLSI

SVPNKAFEL
BFA5 peptides eliciting high IFN-γ release (>200 spots/100,000 cells) (HLA-A*0201 human T cells; Donor AP10): SVPNKAFEL

SVPNKALEL
BFA5 peptides eliciting high IFN-γ release (>200 spots/100,000 cells) (HLA-A*0201 human T cells; Donor AP10): SVPNKALEL

TVSQKDVCL
BFA5 peptides eliciting high IFN-γ release (>200 spots/100,000 cells) (HLA-A*0201 human T cells; Donor AP10): TVSQKDVCL

VFAADICGV
BFA5 peptides eliciting high IFN-γ release (>200 spots/100,000 cells) (HLA-A*0201 human T cells; Donor AP31): VFAADICGV

VLKKKLSEA
BFA5 peptides eliciting high IFN-γ release (>200 spots/100,000 cells) (HLA-A*0201 human T cells; Donor AP31): VLKKKLSEA

YLLHENCML
BFA5 peptides eliciting high IFN-γ release (>200 spots/100,000 cells) (HLA-A*0201 human T cells; Donor AP10): YLLHENCML
BFA5 peptides eliciting high IFN-γ release (>200 spots/100,000 cells) (HLA-A*0201 human T cells; Donor AP31): YLLHENCML
BFA5 peptides inducing CTL lysis of pulsed cells (peptide-loaded T2 cells; Donor AP10): YLLHENCML
